Patent US7371780B2, “Use of calphostin C to treat drug-resistant tumor cells” (priority 2003, dated 2008)

What was measured:
MCF-7DOX cells [1] = assay: Flow cytometric sub-G1 DNA content, MCF-7DOX; assay type: cell-based, human; conditions: 100 nM calphostin C
Experimental: (§1) For flow cytometric analysis, cells at about 50% to 60% confluence were released from their flasks by trypsin treatment and washed with PBS. After centrifugation at 1000 rpm for 5 min, cells were then fixed by resuspension in 75% ethanol for 2 hours, collected by centrifugation, and resuspended in PI staining solution (see above) for 1 h. For each sample, approximately 2×10^4 cells were analyzed using a Beckman Coulter Epics® Elite flow cytometer. Fluorescence intensity upon stimulation with an argon-ion laser at 488 nm was measured using the PMT4 channel (625DL filter) and plotted against cell number. The percentage of cells with a sub-G1 DNA content was determined by the flow cytometer, adjusting the gates such that only cells with a fluorescence lower than the peak for untreated cells in G1 are counted (see FIG. 4).

[2] = tested on: Chinese hamster ovary (CHO) cells; assay: Death and cytoplasmic vacuolization, CHO; assay type: cell-based; conditions: data not shown
MCF-7TAX cells [3] = assay: Drug uptake, MCF-7TAX; assay type: cell-based, human
Experimental: (§2) FIG. 5 illustrates the effect of calphostin C (Cal-C) on drug uptake in MCF-7 (square symbols), MCF-7TAX (diamond symbols) and MCF-7DOX (triangular symbols) cells. After one-day growth, the cells were left untreated (closed symbols) or treated with 100 nM calphostin C for 2 h with light activation (open symbols). Cells were then washed and the medium replaced with medium containing 2 μM of doxorubicin (A) or [^3H]-paclitaxel (B). The cells were then trypsinized and drug accumulation measured by flow cytometry (A) or liquid scintillation counting (B) at indicated time points. The figures are representative of three independent experiments.

MCF-7TAX cells [4] = assay: Flow cytometric sub-G1 DNA content, MCF-7TAX; assay type: cell-based, human; conditions: 100 nM calphostin C, 2 h light
Experimental: as §1

[5] = tested on: MDA-MB231 human breast cancer cells; assay: Death and cytoplasmic vacuolization, MDA-MB231; assay type: cell-based; conditions: data not shown
[6] = mice, cited from earlier work
[7] = tested on: human 293T embryonic kidney cells; assay: Death and cytoplasmic vacuolization, 293T; assay type: cell-based; conditions: data not shown
MCF-7 cells [8] = assay: Flow cytometric sub-G1 DNA content, MCF-7; assay type: cell-based, human; conditions: 100 nM calphostin C, 2 h light
Experimental: as §1

MCF-7DOX cells [9] = assay: Microscopic cell morphology, MCF-7DOX; assay type: cell-based, human; conditions: data not shown
Experimental: For microscopic observation, cells were seeded onto standard glass coverslips in 10 cm tissue culture plates with 10 ml of H21 medium and grown for 2 days until 40-50% confluence was obtained. After treatment with paclitaxel, doxorubicin or calphostin C, the cells on the glass coverslips were washed twice with PBS (2.7 mM KCl, 1.0 mM KH2PO4, 137 mM NaCl, 10 mM Na2HPO4, pH 7.4) and stained with acridine orange/ethidium bromide (each at 4 μg/ml in PBS) for 10 min at 37° C.. The coverslips were then washed three times in PBS and mounted onto standard glass slides for morphological evaluation. For propidium iodide (PI) staining, the cells on coverslips were washed twice with PBS and fixed in methanol (cooled to −20° C.) for 20 min. Thirty μl of propidium iodide (PI) staining solution (100 μg/ml PI, 0.1% sodium citrate, 100 μg/ml RNase A and 0.3% Nonidet P-40) were then applied to the coverslips for 5 min. […] The cells were then examined using a Zeiss Axiovert 100 inverted fluorescence microscope. […] For each sample, the number of dead cells was determined by visualization after ethidium bromide staining, whereby only dead cells which have lost membrane integrity allow entry of cell-impermeable ethidium bromide into cells to complex with DNA and induce bright red fluorescence. […] The images were recorded and overlayed using Northern Eclipse software (Empix Imaging Inc., Mississauga, ON).

MCF-7DOX cells [10] = assay: Cytoplasmic shrinkage by hematoxylin/eosin staining, MCF-7DOX; assay type: cell-based, human
Experimental: (§3) For staining with hematoxylin and eosin, cells were grown in a six-well culture plate with each well containing a Snowcoat X-Tra™ microscope slide (Surgipath Laboratories, MB) immersed in 3 ml of H21 medium. When the cells reached 50% confluence, they were treated with 0-300 nM calphostin C, followed by a 2 hour exposure of the cultures to fluorescent light as described above. After light activation, the cells were placed in a 37° C. humidified incubator with 5% CO2 and incubated for an additional 22 hours. The cells were then stained with hematoxylin and eosin using a previously described procedure. Briefly, the media was removed from cell cultures and the cells that remained adhered to the slides were washed with PBS, fixed in formalin:acetone (1:2) for 2 min, and allowed to air dry for 10 min. After washing with distilled water, 250 μl of hematoxylin solution (BDH Chemicals, Toronto, ON) was placed on each slide and allowed to incubate with the cells for 5 min. The slides were then washed with distilled water, Scott's tap water (20 g MgSO4.7H2O, 1.5 g NaHCO3 in 1 L H2O), and a final wash with distilled water. The cells on the slides were then stained for 5 min in 250 μl of eosin solution (100 ml of 1% eosin, 10 ml of 1% phyloxine, 4 ml of glacial acetic acid, and 780 ml of 95% ethanol). The cells were then dehydrated by washing three times in 95% ethanol and twice in 100% ethanol. The small slide was then mounted on a standard microscope glass slide, and 10 randomly selected fields were viewed at 100× magnification and photographed. For each concentration of calphostin C, the total number of dead cells in each field was ascertained and expressed relative to the total number of cells in the field.

MCF-7DOX cells [11] = assay: Drug uptake, MCF-7DOX; assay type: cell-based, human
Experimental: as §2

MCF-7 cells [12] = assay: Cytoplasmic shrinkage by hematoxylin/eosin staining, MCF-7; assay type: cell-based, human
Experimental: as §3

MCF-7 cells [13] = assay: Drug uptake (flow cytometry / scintillation counting), MCF-7; assay type: cell-based, human; conditions: 100 nM calphostin C
Experimental: as §2

[14] = 100 nM calphostin C 2 h with light, then 2 μM doxorubicin

In the case of `COc1c(C[C@@H](C)OC(=O)Oc2ccc(O)cc2)c2c3c(C[C@@H](C)OC(=O)c4ccccc4)c(OC)c(=O)c4c(O)cc(OC)c(c5c(OC)cc(O)c(c1=O)c52)c43` [calphostin C], the “time of strong increase in percentage of sub-G1 cells after treatment” value (MCF-7DOX cells [1]; MCF-7ADR (so in the source), 2 h light) is reported as 8 h, the “percentage of cells with sub-G1 DNA content versus similarly treated MCF-7 or MCF-7TAX cells” value (MCF-7DOX cells [1]; MCF-7DOX) is reported as “significantly lower” and the “induction of death and cytoplasmic vacuolization” value (from here on “induction”) [2] is reported as “induce both death and cytoplasmic vacuolization”. For the same molecule, the “effect on doxorubicin uptake” value (MCF-7TAX cells [3]; [14]) was “little ability to re-establish doxorubicin uptake”, the “effect on paclitaxel uptake” value (MCF-7TAX cells [3]; 100 nM calphostin C, early time points, back to control by 18 hours) was “slightly restored” and the “time of strong increase in percentage of sub-G1 cells after treatment” value (MCF-7TAX cells [4]) was 8 h. The “induction” value [5] was “induce both death and cytoplasmic vacuolization”, the “clearance rate t1/2” value ([6]; 40 mg/kg) was 1.52 h and the “plasma concentration reached without significant cytotoxicity” value [6] was 2900 nM. For the same molecule, the “induction” value [7] was “induce both death and cytoplasmic vacuolization”, the “time of strong increase in percentage of sub-G1 cells after treatment” value (MCF-7 cells [8]) was 8 h and the “concentration giving cytoplasmic vacuolization equal to MCF-7 and MCF-7TAX cells at 50 nM” value (MCF-7DOX cells [9]) was 300 nM. The “concentration at which cytoplasmic shrinkage was first observed” value (MCF-7DOX cells [10]) was 100 nM, the “concentration required for complete cytoplasmic shrinkage” value (MCF-7DOX cells [10]) was 300 nM and the “percentage of cells exhibiting cytoplasmic shrinkage” value (MCF-7DOX cells [10]; 25 nM calphostin C) was “remained unchanged”. For the same molecule, the “effect on paclitaxel uptake” value (MCF-7DOX cells [11]; 100 nM calphostin C) was “little effect”, the “effect on doxorubicin uptake” value (MCF-7DOX cells [11]; [14]) was “little ability to re-establish doxorubicin uptake” and the “concentration required for complete cytoplasmic shrinkage” value (MCF-7 cells [12]) was 300 nM. The “percentage of cells exhibiting cytoplasmic shrinkage” value (MCF-7 cells [12]; 25 nM calphostin C, 2 h light, 24 h) was 20%, the “percentage of cells exhibiting cytoplasmic shrinkage” value (MCF-7 cells [12]; 50 nM calphostin C) was 35% and the “effect on paclitaxel accumulation” value (MCF-7 cells [13]) was “decreased paclitaxel accumulation”.
